Measured values reported in patent US12565522B2, “Micropeptide HMMW and application thereof” (NANJING ANJI BIOTECHNOLOGY CO., LTD., priority 2019, dated 2026).
No end group written: not given here.

Columns and labels:
Type in all cases: cell-based, human
Details in all cases: 24 h
[1] = tested on: TE13 cells of esophageal squamous cell carcinoma; assay: Matrigel transwell invasion test
Method: (§1) Dilute 10 mg/mL Matrigel with culture medium at 1:3, spread it on membranes of transwell cells and dry it in the air at room temperature. Use trypsin to digest and collect SCC4 cells of head and neck cancer, SW579 cells of thyroid cancer, A549 cells of lung cancer, TE13 cells of esophageal squamous cell carcinoma, MGC803 cells of stomach cancer, MDA-MB-231 cells of breast cancer, UOK262 cells of kidney cancer, and A431 cells of skin cancer of human, which were cultured to the logarithmic phase, wash with PBS twice and re-suspend with a blank culture medium. Adjust cell concentration to 1×10^5 cells/mL. Inoculate the cells to transwell cells, 100 μL per well, and meanwhile add micropeptides HMMW I to IX at different doses to every cell. Add 0.6 mL of complete medium containing 10% FBS to the transwell cells to stimulate cell invasion, and culture in 5% CO2 at 37 DEG C. for 24 h. Discard the medium in the wells, fix with 90% alcohol at room temperature for 30 min, stain with 0.1% crystal violet at room temperature for 10 min, rinse with clear water, gently wipe off the non-invaded cells in the upper layer with a cotton swab, observe under a microscope and select four fields of view to take pictures and count. Calculate the invasion inhibition rate (IIR) of the cells according to the following formula:
(§2) [formula] where Ntest is the number of invaded cells in the test groups (the groups at a dose of 1, 4 or 16 μM in the table), Ncontrol is the number of invaded cells in the blank control groups (the groups at a dose of 0 μM in the table). The test was repeated independently three times. Mean±SD was calculated based on the test results. Statistical t test was done. Value P was used to express statistical difference. The statistical significance of the results is a method for estimating how true the results are (the totality can be represented), *P<0.05 means significant difference, and **P<0.01 means very significant difference.

[2] = tested on: A431 cells of skin cancer; assay: Matrigel transwell invasion test
Method: as §1, §2

[3] = tested on: SCC4 cells of head and neck cancer; assay: Matrigel transwell invasion test
Method: as §1, §2

[4] = tested on: MDA-MB-231 cells of breast cancer; assay: Matrigel transwell invasion test
Method: as §1, §2

[5] = tested on: UOK262 cells of kidney cancer; assay: Matrigel transwell invasion test
Method: as §1, §2

[6] = tested on: A549 cells of lung cancer; assay: Matrigel transwell invasion test
Method: as §1, §2

[7] = tested on: SW579 cells of thyroid cancer; assay: Matrigel transwell invasion test
Method: as §1, §2

[8] = tested on: MGC803 cells of stomach cancer; assay: Matrigel transwell invasion test
Method: as §1, §2

[9] = tested on: TE13 cells of esophageal squamous cell carcinoma; assay: transwell migration test
Method: (§3) Inoculate SCC4 cells of head and neck cancer, SW579 cells of thyroid cancer, A549 cells of lung cancer, TE13 cells of esophageal squamous cell carcinoma, MGC803 cells of stomach cancer, MDA-MB-231 cells of breast cancer, UOK262 cells of kidney cancer, and A431 cells of skin cancer of human to transwell cells, 100 μL per well, and meanwhile add micropeptides HMMW I to IX at different doses to every cell. Add 0.6 mL of complete medium containing 10% FBS to the transwell cells to stimulate cell migration, and culture in 5% CO2 at 37 DEG C. for 24 h. Discard the medium in the wells, fix with 90% alcohol at room temperature for 30 min, stain with 0.1% crystal violet at room temperature for 10 min, rinse with clear water, gently wipe off the non-migrated cells in the upper layer with a cotton swab, observe under a microscope and select four fields of view to take pictures and count. Calculate the migration inhibition rate (MIR) of the cells according to the following formula: […]
(§4) The test was repeated independently three times. Mean±SD was calculated based on the test results. Statistical t test was done. Here, “the test was repeated independently three times” means that every dose of any type of cells was tested repeatedly three times, and then the above formula was used to calculate the number of migrated cells (Mean±SD). Value P was used to express statistical difference. The statistical significance of the results is a method for estimating how true the results are (the totality can be represented), *P<0.05 means significant difference, and **P<0.01 means very significant difference.

[10] = tested on: A431 cells of skin cancer; assay: transwell migration test
Method: as §3, §4

[11] = tested on: SCC4 cells of head and neck cancer; assay: transwell migration test
Method: as §3, §4

[12] = tested on: MDA-MB-231 cells of breast cancer; assay: transwell migration test
Method: as §3, §4

[13] = tested on: UOK262 cells of kidney cancer; assay: transwell migration test
Method: as §3, §4

[14] = tested on: A549 cells of lung cancer; assay: transwell migration test
Method: as §3, §4

[15] = tested on: SW579 cells of thyroid cancer; assay: transwell migration test
Method: as §3, §4

[16] = tested on: MGC803 cells of stomach cancer; assay: transwell migration test
Method: as §3, §4

Q: For “MERAGVPGFSPRRSSVEAKMQSTSCSVRKSSTVTAWPAVVLLLSWGQRRGE-OH [HMMW-VIII]”, which invasion inhibition rate ([1]; dose 1 μM) is on record?
A: Its invasion inhibition rate is 24.21%.

Q: And the invasion inhibition rate ([1]; dose 4 μM)?
A: The invasion inhibition rate was 42.31%.

Q: And the invasion inhibition rate ([1]; dose 16 μM)?
A: The invasion inhibition rate was 61.51%.

Q: And the invasion inhibition rate ([2]; dose 1 μM)?
A: The invasion inhibition rate was 34.50%.

Q: What about the invasion inhibition rate ([2]; dose 4 μM) of the same substance?
A: Its invasion inhibition rate is 55.11%.

Q: What about the invasion inhibition rate ([2]; dose 16 μM) of the same substance?
A: Its invasion inhibition rate is 69.43%.

Q: What about the invasion inhibition rate ([3]; dose 1 μM) of the same substance?
A: Its invasion inhibition rate is 23.71%.

Q: And the invasion inhibition rate ([3]; dose 4 μM)?
A: Its invasion inhibition rate is 49.14%.

Q: And the invasion inhibition rate ([3]; dose 16 μM)?
A: The invasion inhibition rate was 76.64%.

Q: What about the invasion inhibition rate ([4]; dose 1 μM) of the same substance?
A: Its invasion inhibition rate is 27.90%.

Q: And the invasion inhibition rate ([4]; dose 4 μM)?
A: Its invasion inhibition rate is 45.81%.

Q: And the invasion inhibition rate ([4]; dose 16 μM)?
A: Its invasion inhibition rate is 64.26%.

Q: What about the invasion inhibition rate ([5]; dose 1 μM) of the same substance?
A: Its invasion inhibition rate is 35.27%.

Q: And the invasion inhibition rate ([5]; dose 4 μM)?
A: Its invasion inhibition rate is 54.14%.

Q: What about the invasion inhibition rate ([5]; dose 16 μM) of the same substance?
A: The invasion inhibition rate was 68.21%.

Q: And the invasion inhibition rate ([6]; dose 1 μM)?
A: Its invasion inhibition rate is 34.03%.

Q: And the invasion inhibition rate ([6]; dose 4 μM)?
A: Its invasion inhibition rate is 55.20%.

Q: What about the invasion inhibition rate ([6]; dose 16 μM) of the same substance?
A: The invasion inhibition rate was 68.03%.

Q: And the invasion inhibition rate ([7]; dose 1 μM)?
A: The invasion inhibition rate was 19.61%.

Q: And the invasion inhibition rate ([7]; dose 4 μM)?
A: The invasion inhibition rate was 43.56%.

Q: And the invasion inhibition rate ([7]; dose 16 μM)?
A: Its invasion inhibition rate is 64.79%.

Q: What about the invasion inhibition rate ([8]; dose 1 μM) of the same substance?
A: The invasion inhibition rate was 26.01%.

Q: And the invasion inhibition rate ([8]; dose 4 μM)?
A: The invasion inhibition rate was 57.18%.

Q: What about the invasion inhibition rate ([8]; dose 16 μM) of the same substance?
A: Its invasion inhibition rate is 70.60%.

Q: What about the migration inhibition rate ([9]; dose 1 μM) of the same substance?
A: The migration inhibition rate was 23.73%.

Q: And the migration inhibition rate ([9]; dose 4 μM)?
A: The migration inhibition rate was 42.23%.

Q: What about the migration inhibition rate ([9]; dose 16 μM) of the same substance?
A: Its migration inhibition rate is 63.31%.

Q: And the migration inhibition rate ([10]; dose 1 μM)?
A: The migration inhibition rate was 33.10%.

Q: And the migration inhibition rate ([10]; dose 4 μM)?
A: Its migration inhibition rate is 53.37%.

Q: What about the migration inhibition rate ([10]; dose 16 μM) of the same substance?
A: The migration inhibition rate was 71.20%.

Q: What about the migration inhibition rate ([11]; dose 1 μM) of the same substance?
A: The migration inhibition rate was 17.80%.

Q: And the migration inhibition rate ([11]; dose 4 μM)?
A: The migration inhibition rate was 42.92%.

Q: And the migration inhibition rate ([11]; dose 16 μM)?
A: The migration inhibition rate was 72.35%.

Q: And the migration inhibition rate ([12]; dose 1 μM)?
A: The migration inhibition rate was 26.14%.

Q: And the migration inhibition rate ([12]; dose 4 μM)?
A: The migration inhibition rate was 50.24%.

Q: What about the migration inhibition rate ([12]; dose 16 μM) of the same substance?
A: Its migration inhibition rate is 73.32%.

Q: What about the migration inhibition rate ([13]; dose 1 μM) of the same substance?
A: The migration inhibition rate was 18.29%.

Q: What about the migration inhibition rate ([13]; dose 4 μM) of the same substance?
A: The migration inhibition rate was 43.48%.

Q: What about the migration inhibition rate ([13]; dose 16 μM) of the same substance?
A: The migration inhibition rate was 71.45%.

Q: And the migration inhibition rate ([14]; dose 1 μM)?
A: Its migration inhibition rate is 32.06%.

Q: And the migration inhibition rate ([14]; dose 4 μM)?
A: Its migration inhibition rate is 51.90%.

Q: And the migration inhibition rate ([14]; dose 16 μM)?
A: Its migration inhibition rate is 73.40%.

Q: And the migration inhibition rate ([15]; dose 1 μM)?
A: The migration inhibition rate was 18.81%.

Q: And the migration inhibition rate ([15]; dose 4 μM)?
A: Its migration inhibition rate is 52.05%.

Q: What about the migration inhibition rate ([15]; dose 16 μM) of the same substance?
A: The migration inhibition rate was 70.90%.

Q: And the migration inhibition rate ([16]; dose 1 μM)?
A: Its migration inhibition rate is 24.60%.

Q: What about the migration inhibition rate ([16]; dose 4 μM) of the same substance?
A: The migration inhibition rate was 53.43%.

Q: And the migration inhibition rate ([16]; dose 16 μM)?
A: The migration inhibition rate was 73.81%.
